Key:
human STING WT (R232) = target: T1, human STING WT (R232) (Homo sapiens, UniProt Q86WV6, H232R); assay: Human STING HTRF binding assay (competitive, Cisbio 64BDSTGPEG)
T1 construct: purchased Cisbio 64BDSTGPEG
Summary of the method: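 Competitive HTRF: 6His-tagged human STING WT R232 binding domain (residues 138-379) with anti-6His Cryptate antibody and d2-labeled STING ligand, 180 min at room temperature, 1% DMSO, 8 concentrations from 10 μM or 1 μM top in ~1:5 steps. HTRF ratios were calibrated to a cGAMP standard curve and IC50 obtained by 4-parameter logistic fit.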

[1] = target: T2, cGAMP binding domain of wild-type (GRR) human STING, residues 155-341 (Homo sapiens, UniProt Q86WV6, H232R); assay: Increase of stability of STING protein against thermal denaturation, Differential Scanning Fluorimetry (DSF)
T2 construct: His-TEV-hSTING (WT); TEV protease cleavage site (N); made in house; host or cells: E. coli BL21 DE3
T2 sequence (Q86WV6 with tags, fused parts or gaps H232R): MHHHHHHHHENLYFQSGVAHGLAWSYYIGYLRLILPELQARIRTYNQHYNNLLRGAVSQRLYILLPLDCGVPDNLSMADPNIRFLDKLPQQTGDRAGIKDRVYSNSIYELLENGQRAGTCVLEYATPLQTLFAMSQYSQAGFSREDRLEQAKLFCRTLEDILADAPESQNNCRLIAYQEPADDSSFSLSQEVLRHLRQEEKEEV
Summary of the method: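 3 µM His-tagged protein with 100 uM compound, 5×SYPRO Orange, 2% DMSO in 20 mM Tris, 150 mM NaCl, pH7.5; 15–95 °C ramp in 0.5 °C steps (15 s/cycle). Tm from Boltzmann fit of the dye melt curve, duplicates averaged, repeated if SD>1.5 °C; ΔTm = Tm with compound minus Tm of protein alone.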

T1 sequence (Q86WV6 138-379 H232R): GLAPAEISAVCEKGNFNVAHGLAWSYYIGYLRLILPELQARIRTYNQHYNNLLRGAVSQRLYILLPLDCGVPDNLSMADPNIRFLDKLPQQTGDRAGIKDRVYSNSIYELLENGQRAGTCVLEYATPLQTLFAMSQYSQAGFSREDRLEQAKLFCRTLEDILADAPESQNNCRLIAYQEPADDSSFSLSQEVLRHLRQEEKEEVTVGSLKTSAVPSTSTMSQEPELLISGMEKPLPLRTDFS

Structure (SMILES) | IC50 (human STING WT (R232)) [nM] | DSF [1] [K]
Cc1nc2nn(C)cc2cc1-n1nc(-c2cccc3nn(C[C@H](OCC4CC4)c4ccccc4)cc23)c(C(C)C)c1C [Example 63, 2-[(2R)-2-(cyclopropylmethoxy)-2-phenylethyl]-4-(1-{2,6-dimethyl-2H-pyrazolo[3,4-b]pyridin-5-yl}-5-methyl-4-(propan-2-yl)-1H-pyrazol-3-yl)-2H-indazole] | 39.8 | 22
Cc1c(C(C)C)c(-c2cccc3nn(C[C@H](O)c4ccccc4)cc23)nn1-c1cc2cn(C)nc2nc1C(F)F [Example 64, (1R)-2-(4-{1-[6-(difluoromethyl)-2-methyl-2H-pyrazolo[3,4-b]pyridin-5-yl]-5-methyl-4-(propan-2-yl)-1H-pyrazol-3-yl}-2H-indazol-2-yl)-1-phenylethan-1-ol] | 7.6 | 26
Cc1nc2nn(C)cc2cc1-n1nc(-c2cccc3nn(CCc4ccc(OCCN(C)C)cc4)cc23)c(C(C)C)c1C [Example 65, [2-(4-{2-[4-(1-{2,6-dimethyl-2H-pyrazolo[3,4-b]pyridin-5-yl}-5-methyl-4-(propan-2-yl)-1H-pyrazol-3-yl)-2H-indazol-2-yl]ethyl}phenoxy)ethyl]dimethylamine] | 16.9 | 26
Cc1nc2nn(C)cc2cc1-n1nc(-c2cccc3nn(C[C@H](OCCCCO)c4ccccc4)cc23)c(C(C)C)c1C [Example 66, 4-[(1R)-2-[4-(1-{2,6-dimethyl-2H-pyrazolo[3,4-b]pyridin-5-yl}-5-methyl-4-(propan-2-yl)-1H-pyrazol-3-yl)-2H-indazol-2-yl]-1-phenylethoxy]butan-1-ol] | 8 | 23
Cc1nc2nn(CC(O)CO)cc2cc1-n1nc(-c2cccc3nn(C[C@H](O)c4ccccc4)cc23)c(C(C)C)c1C (stereo partly drawn) [Example 67, 3-[5-(3-{2-[(2R)-2-hydroxy-2-phenylethyl]-2H-indazol-4-yl}-5-methyl-4-(propan-2-yl)-1H-pyrazol-1-yl)-6-methyl-2H-pyrazolo[3,4-b]pyridin-2-yl]propane-1,2-diol] | 10.8 | 26
Cn1cc2cc(-c3nc(-c4cccc5nn(C[C@H](O)c6ccc(OCC7CCOCC7)cc6)cc45)c(C4CC4)n3C)c(C3CC3)nc2n1 [Example 68] | 17.7 | 28
Cn1cc2cc(-c3nc(-c4cccc5nn(C[C@H](O)c6ccc(OC7COC7)cc6)cc45)c(C4CC4)n3C)c(C3CC3)nc2n1 [Example 69, (1R)-2-[4-(5-cyclopropyl-2-{6-cyclopropyl-2-methyl-2H-pyrazolo[3,4-b]pyridin-5-yl}-1-methyl-1H-imidazol-4-yl)-2H-indazol-2-yl]-1-[4-(oxetan-3-yloxy)phenyl]ethan-1-ol] | 7.5 | 29
Cc1nc2nn(CC(O)CN3CCN(C)CC3)cc2cc1-n1nc(-c2cccc3nn(C[C@H](O)c4ccccc4)cc23)c(C(C)C)c1C (stereo partly drawn) [Example 70, 1-[5-(3-{2-[(2R)-2-hydroxy-2-phenylethyl]-2H-indazol-4-yl}-5-methyl-4-(propan-2-yl)-1H-pyrazol-1-yl)-6-methyl-2H-pyrazolo[3,4-b]pyridin-2-yl]-3-(4-methylpiperazin-1-yl)propan-2-ol] | 37.7 | 24
CCc1nc2nn(C)cc2cc1-c1nc(-c2cccc3nn(C[C@H](F)c4ccc(Cl)cc4)cc23)c(C2CC2)n1C [Example 72, 2-[(2R)-2-(4-chlorophenyl)-2-fluoroethyl]-4-(5-cyclopropyl-2-{6-ethyl-2-methyl-2H-pyrazolo[3,4-b]pyridin-5-yl}-1-methyl-1H-imidazol-4-yl)-2H-indazole] | 17.6 | 30
Cc1c(C(C)C)c(-c2cccc3nn(C[C@H](O)c4ccccc4)cc23)nn1-c1cc2cn(C)nc2nc1C1CCOCC1 [Example 73, (1R)-2-(4-{5-methyl-1-[2-methyl-6-(oxan-4-yl)-2H-pyrazolo[3,4-b]pyridin-5-yl]-4-(propan-2-yl)-1H-pyrazol-3-yl}-2H-indazol-2-yl)-1-phenylethan-1-ol] | 11.4 | 28
CC(C)c1nc2nn(C)cc2cc1-c1nc(-c2cccc3nn(CS(=O)(=O)c4ccccc4)cc23)c(C2CC2)n1C [Example 96, 2-[(Benzenesulfonyl)methyl]-4-{5-cyclopropyl-1-methyl-2-[2-methyl-6-(propan-2-yl)-2H-pyrazolo[3,4-b]pyridin-5-yl]-1H-imidazol-4-yl}-2H-indazole] | 34 | 29
CC(C)c1nc2nn(C)cc2cc1-c1nc(-c2cccc3nn(C[C@H](O)c4ccccc4)cc23)c(C2CC2)n1C [Example 97, (1R)-2-(4-{5-Cyclopropyl-1-methyl-2-[2-methyl-6-(propan-2-yl)-2H-pyrazolo[3,4-b]pyridin-5-yl]-1H-imidazol-4-yl}-2H-indazol-2-yl)-1-phenylethan-1-ol] | 3.4 | 31
Cc1nc2nn(CC#N)cc2cc1-n1nc(-c2cccc3nn(C[C@H](O)c4ccccc4)cc23)c(C(C)C)c1C [Example 98, 2-[5-(3-{2-[(2R)-2-hydroxy-2-phenylethyl]-2H-indazol-4-yl}-5-methyl-4-(propan-2-yl)-1H-pyrazol-1-yl)-6-methyl-2H-pyrazolo[3,4-b]pyridin-2-yl]acetonitrile] | 3.1 | 29
CCn1cc2cc(-n3nc(-c4cccc5nn(C[C@H](O)c6ccccc6)cc45)c(C(C)C)c3C)c(C)nc2n1 [Example 100, (1R)-2-[4-(1-{2-ethyl-6-methyl-2H-pyrazolo[3,4-b]pyridin-5-yl}-5-methyl-4-(propan-2-yl)-1H-pyrazol-3-yl)-2H-indazol-2-yl]-1-phenylethan-1-ol] | 6.9 | 28
Cc1c(C(C)C)c(-c2cccc3nn(C[C@H](O)c4ccc(OCCN(C)C)cc4)cc23)nn1-c1cc2cn(C)nc2nc1C1CC1 [Example 101] | 10.6 | 30
Cc1nc2nn(C)cc2cc1-n1nc(-c2cccc3nn(C[C@H](O)c4ccccc4)cc23)c(C(C)C)c1C [Example 102, (1R)-2-[4-(1-{2,6-Dimethyl-2H-pyrazolo[3,4-b]pyridin-5-yl}-5-methyl-4-(propan-2-yl)-1H-pyrazol-3-yl)-2H-indazol-2-yl]-1-phenylethan-1-ol] | 3.6 | 28

Results, then the compound that gave them:

IC50 (human STING WT (R232)) [nM] | DSF [1] [K] | Structure (SMILES)
9.3 | 29 | Cc1nc2nn(CC(F)F)cc2cc1-n1nc(-c2cccc3nn(C[C@H](O)c4ccccc4)cc23)c(C(C)C)c1C [Example 103, (1R)-2-(4-{1-[2-(2,2-difluoroethyl)-6-methyl-2H-pyrazolo[3,4-b]pyridin-5-yl]-5-methyl-4-(propan-2-yl)-1H-pyrazol-3-yl}-2H-indazol-2-yl)-1-phenylethan-1-ol]
2 | 31 | Cn1c(-c2cc3cn(CCC#N)nc3nc2C2CC2)nc(-c2cccc3nn(C[C@H](O)c4ccccc4)cc23)c1C1CC1 [Example 104, 3-[6-cyclopropyl-5-(5-cyclopropyl-4-{2-[(2R)-2-hydroxy-2-phenylethyl]-2H-indazol-4-yl}-1-methyl-1H-imidazol-2-yl)-2H-pyrazolo[3,4-b]pyridin-2-yl]propanenitrile]
78.1 | 24 | Cc1nc2cc(C)c(-n3nc(-c4cccc5nn(C[C@H](O)c6ccccc6)cc45)c(C(C)C)c3C)cc2[nH]1 [Example 105, (1R)-2-{4-[1-(2,5-dimethyl-1H-1,3-benzodiazol-6-yl)-5-methyl-4-(propan-2-yl)-1H-pyrazol-3-yl]-2H-indazol-2-yl}-1-phenylethan-1-ol]
3.2 | 28 | Cc1c(C(C)C)c(-c2cccc3nn(C[C@H](O)c4ccccc4)cc23)nn1-c1cc2cn(C)nc2nc1CO [Example 106, (1R)-2-(4-{1-[6-(hydroxymethyl)-2-methyl-2H-pyrazolo[3,4-b]pyridin-5-yl]-5-methyl-4-(propan-2-yl)-1H-pyrazol-3-yl}-2H-indazol-2-yl)-1-phenylethan-1-ol]
3.8 | 31 | CCc1nc2nn(C)cc2cc1-c1nc(-c2cccc3nn(C[C@H](F)c4ccccc4)cc23)c(C2CC2)n1C [Example 107, 4-(5-cyclopropyl-2-{6-ethyl-2-methyl-2H-pyrazolo[3,4-b]pyridin-5-yl}-1-methyl-1H-imidazol-4-yl)-2-[(2R)-2-fluoro-2-phenylethyl]-2H-indazole]
5.8 | 27 | Cc1nc2nn(C)cc2cc1-n1nc(-c2cccc3nn(C[C@H](OCC(N)=O)c4ccccc4)cc23)c(C(C)C)c1C [Example 108, 2-[(1R) -2-[4-(1-{2,6-dimethyl-2H-pyrazolo[3,4-b]pyridin-5-yl}-5-methyl-4-(propan-2-yl)-1H-pyrazol-3-yl)-2H-indazol-2-yl]-1-phenylethoxy]acetamide]
18.8 | 27 | CC(C)c1c(-c2cccc3nn(C[C@H](O)c4ccccc4)cc23)nc(-c2cc3cn(C)nc3cc2OC(F)(F)F)n1C [Example 109, (1R)-2-(4-{1-methyl-2-[2-methyl-6-(trifluoromethoxy)-2H-indazol-5-yl]-5-(propan-2-yl)-1H-imidazol-4-yl}-2H-indazol-2-yl)-1-phenylethan-1-ol]
8.3 | 29 | Cn1cc2cc(-c3nc(-c4cccc5nn(C[C@H](O)c6ccccc6)cc45)c(C4CC4)n3C)c(C3CC3(F)F)nc2n1 (stereo partly drawn) [Example 110, (1R)-2-(4-{5-cyclopropyl-2-[6-(2,2-difluorocyclopropyl)-2-methyl-2H-pyrazolo[3,4-b]pyridin-5-yl]-1-methyl-1H-imidazol-4-yl}-2H-indazol-2-yl)-1-phenylethan-1-ol]

Reference: US20260265244A1, “HETEROCYCLIC COMPOUNDS AS STING ANTAGONISTS” (Boehringer Ingelheim International GmbH, priority 2022, published 2026)
